# Measured values published in US12180187B2, “1-phenyl-5-azinylpyrazolyl-3-oxyalkyl acids and their use for controlling unwanted plant growth” (BAYER AKTIENGESELLSCHAFT, priority 2019, dated 2024).
# Experiments:
# STEME [1] = test: Post-emergence action against STEME, 1.28 kg/ha; type: in vivo, Stellaria media; conditions: dosage 1280 g/ha, visual rating about 3 weeks after treatment vs untreated controls (100% = plants died)
# Outline: (§1)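 Greenhouse pot test, sandy loam; weeds sprayed post-emergence at one-leaf stage (2–3 weeks after sowing) with WP or EC formulation plus 0.5% additive, 600 l/ha water. Visual rating after about 3 weeks versus untreated controls, 100% = plants dead, 0% = like control.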
# LOLRI [2] = test: Post-emergence action against LOLRI, 1.28 kg/ha; type: in vivo, Lolium rigidum; conditions: dosage 1280 g/ha, visual rating about 3 weeks after treatment vs untreated controls
# Outline: as §1
# SETVI [3] = test: Pre-emergence action against SETVI, 1280 g/ha; type: in vivo, Setaria viridis; conditions: visual scoring after about 3 weeks vs untreated controls, 100% = plants have died, 0% = like control plants
# Outline: (§2)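 Greenhouse pre-emergence test on sown seeds in sandy loam; soil-surface spray of formulated compound with 0.5% additive at 600 L/ha water. Scored visually, % vs untreated, after about 3 weeks.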
# POLCO = test: Pre-emergence action at 320 g/ha against POLCO; type: in vivo, Fallopia convolvulus (Polygonum convolvulus); conditions: visual scoring after about 3 weeks vs untreated controls
# Outline: (§3)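 Weed seeds sown in pots and covered with soil; compounds formulated as WP or EC were sprayed onto the soil surface as aqueous suspension or emulsion with 0.5% additive at 600 l/ha water. Pots kept in greenhouse; activity scored visually after about 3 weeks versus untreated controls (100% = plants dead, 0% = like control).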
# VIOTR = test: Pre-emergence action at 320 g/ha against VIOTR; type: in vivo, Viola tricolor; conditions: dosage 320 g/ha
# Outline: as §3
# AMARE [4] = test: Pre-emergence action against AMARE, 1280 g/ha; type: in vivo, Amaranthus retroflexus; conditions: scored visually after about 3 weeks vs untreated controls (100% = plants have died)
# Outline: as §2
# ABUTH [5] = test: Pre-emergence action at 320 g/ha against ABUTH; type: in vivo, Abutilon theophrasti; conditions: greenhouse, scored visually after about 3 weeks vs untreated controls, 100% = plants have died, 0% = like control plants
# Description: b) Seeds of monocotyledonous and dicotyledonous weed plants and crop plants are placed in plastic or organic planting pots and covered with soil. The compounds of the invention, formulated in the form of wettable powders (WP) or as emulsion concentrates (EC), are then applied onto the surface of the covering soil as aqueous suspension or emulsion with addition of 0.5% additive at a water application rate of 600 l/ha (converted). After the treatment, the pots are placed in a greenhouse and kept under good growth conditions for the trial plants. After about 3 weeks, the effect of the preparations is scored visually in comparison with untreated controls as percentages. For example, 100% activity=the plants have died, 0% activity=like control plants. Tables 13 to 26 below show the effects of selected compounds of the general formula (I) on various harmful plants and at an application rate corresponding to 320 g/ha, which were obtained by the experimental procedure mentioned above.
# POAAN [6] = test: Pre-emergence action against POAAN, 1280 g/ha; type: in vivo, Poa annua; conditions: visual scoring after about 3 weeks vs untreated controls, 100% = plants have died, 0% = like control plants
# Outline: as §2
# MATIN [7] = test: Pre-emergence action against MATIN, 1280 g/ha; type: in vivo, Tripleurospermum inodorum (Matricaria inodora); conditions: scored visually after about 3 weeks vs untreated controls (100% = plants have died)
# Outline: as §2
# ALOMY [8] = test: Pre-emergence action against ALOMY, 1280 g/ha; type: in vivo, Alopecurus myosuroides; conditions: visual scoring after about 3 weeks vs untreated controls, 100% = plants have died, 0% = like control plants
# Outline: as §2
# STEME [9] = test: Pre-emergence action against STEME, 1280 g/ha; type: in vivo, Stellaria media; conditions: scored visually after about 3 weeks vs untreated controls (100% = plants have died)
# Outline: as §2
# DIGSA [10] = test: Pre-emergence action against DIGSA, 1280 g/ha; type: in vivo, Digitaria sanguinalis; conditions: visual scoring after about 3 weeks vs untreated controls, 100% = plants have died, 0% = like control plants
# Outline: as §2
# MATIN [11] = test: Pre-emergence action at 320 g/ha against MATIN; type: in vivo, Tripleurospermum inodorum (Matricaria inodora); conditions: visual scoring after about 3 weeks vs untreated controls
# Outline: as §3
# MATIN [12] = test: Post-emergence action against MATIN, 1.28 kg/ha; type: in vivo, Tripleurospermum inodorum (Matricaria inodora); conditions: dosage 1280 g/ha, visual rating about 3 weeks after treatment vs untreated controls (100% = plants died)
# Outline: as §1
# KCHSC [13] = test: Pre-emergence action against KCHSC, 1280 g/ha; type: in vivo, Bassia scoparia; conditions: scored visually after about 3 weeks vs untreated controls (100% = plants have died)
# Outline: as §2
# ECHCG [14] = test: Pre-emergence action against ECHCG, 1280 g/ha; type: in vivo, Echinochloa crus-galli; conditions: visual scoring after about 3 weeks vs untreated controls, 100% = plants have died, 0% = like control plants
# Outline: as §2
# ABUTH [15] = test: Post-emergence action against ABUTH, 1.28 kg/ha; type: in vivo, Abutilon theophrasti; conditions: dosage 1280 g/ha, visual rating about 3 weeks after treatment vs untreated controls (100% = plants died)
# Outline: as §1
# DIGSA [16] = test: Post-emergence action against DIGSA, 1.28 kg/ha; type: in vivo, Digitaria sanguinalis; conditions: dosage 1280 g/ha, visual rating about 3 weeks after treatment vs untreated controls
# Outline: as §1
# POAAN [17] = test: Post-emergence action against POAAN, 1.28 kg/ha; type: in vivo, Poa annua; conditions: dosage 1280 g/ha, visual rating about 3 weeks after treatment vs untreated controls
# Outline: as §1
# LOLRI [18] = test: Pre-emergence action against LOLRI, 1280 g/ha; type: in vivo, Lolium rigidum; conditions: visual scoring after about 3 weeks vs untreated controls, 100% = plants have died, 0% = like control plants
# Outline: as §2
# AVEFA = test: Pre-emergence action at 320 g/ha against AVEFA; type: in vivo; conditions: visual scoring after about 3 weeks vs untreated controls
# Outline: as §3
# ABUTH [19] = test: Pre-emergence action against ABUTH, 1280 g/ha; type: in vivo, Abutilon theophrasti; conditions: scored visually after about 3 weeks vs untreated controls (100% = plants have died)
# Outline: as §2
# ALOMY [20] = test: Post-emergence action against ALOMY, 1.28 kg/ha; type: in vivo, Alopecurus myosuroides; conditions: dosage 1280 g/ha, visual rating about 3 weeks after treatment vs untreated controls
# Outline: as §1
# VERPE [21] = test: Pre-emergence action at 320 g/ha against VERPE; type: in vivo, Veronica persica; conditions: visual scoring after about 3 weeks vs untreated controls
# Outline: as §3
# ALOMY [22] = test: Pre-emergence action at 320 g/ha against ALOMY; type: in vivo, Alopecurus myosuroides; conditions: scored visually after about 3 weeks vs untreated controls (100% = plants have died)
# Outline: as §3
# LOLRI [23] = test: Pre-emergence action at 320 g/ha against LOLRI; type: in vivo, Lolium rigidum; conditions: visual scoring after about 3 weeks vs untreated controls
# Outline: as §3
# DIGSA [24] = test: Pre-emergence action at 320 g/ha against DIGSA; type: in vivo, Digitaria sanguinalis; conditions: visual scoring after about 3 weeks vs untreated controls
# Outline: as §3
# ECHCG [25] = test: Post-emergence action against ECHCG, 1.28 kg/ha; type: in vivo, Echinochloa crus-galli; conditions: dosage 1280 g/ha, visual rating about 3 weeks after treatment vs untreated controls
# Outline: as §1
# PHBPU = test: Pre-emergence action at 320 g/ha against PHBPU; type: in vivo; conditions: visual scoring after about 3 weeks vs untreated controls
# Outline: as §3
# AMARE [26] = test: Pre-emergence action at 320 g/ha against AMARE; type: in vivo, Amaranthus retroflexus; conditions: visual scoring after about 3 weeks vs untreated controls
# Outline: as §3
# AMARE [27] = test: Post-emergence action against AMARE, 1.28 kg/ha; type: in vivo, Amaranthus retroflexus; conditions: dosage 1280 g/ha, visual rating about 3 weeks after treatment vs untreated controls (100% = plants died)
# Outline: as §1
# KCHSC [28] = test: Post-emergence action against KCHSC, 1.28 kg/ha; type: in vivo, Bassia scoparia; conditions: dosage 1280 g/ha, visual rating about 3 weeks after treatment vs untreated controls (100% = plants died)
# Outline: as §1
# SETVI [29] = test: Pre-emergence action at 320 g/ha against SETVI; type: in vivo, Setaria viridis; conditions: visual scoring after about 3 weeks vs untreated controls
# Outline: as §3
# VERPE [30] = test: Post-emergence action against VERPE, 1.28 kg/ha; type: in vivo, Veronica persica; conditions: dosage 1280 g/ha, visual rating about 3 weeks after treatment vs untreated controls (100% = plants died)
# Outline: as §1
# VERPE [31] = test: Pre-emergence action against VERPE, 1280 g/ha; type: in vivo, Veronica persica; conditions: scored visually after about 3 weeks vs untreated controls (100% = plants have died)
# Outline: as §2
structure (smiles),measurement,setting,value
C[C@@H](Oc1nn(-c2ccccc2F)c(-c2cncnc2)c1Cl)C(=O)O [VI-018],Post-emergence action against STEME,STEME [1],90%
same,Post-emergence action against LOLRI,LOLRI [2],90%
same,Pre-emergence action against SETVI,SETVI [3],100%
same,Pre-emergence action against POLCO in %,POLCO,90%
same,Pre-emergence action against VIOTR in %,VIOTR,90%
same,Pre-emergence action against AMARE,AMARE [4],100%
same,Pre-emergence action at 320 g/ha against ABUTH in %,ABUTH [5],80%
same,Pre-emergence action against POAAN,POAAN [6],100%
same,Pre-emergence action against MATIN,MATIN [7],100%
same,Pre-emergence action against ALOMY,ALOMY [8],100%
same,Pre-emergence action against STEME,STEME [9],100%
same,Pre-emergence action against DIGSA,DIGSA [10],100%
same,Pre-emergence action against MATIN in %,MATIN [11],90%
same,Post-emergence action against MATIN,MATIN [12],100%
same,Pre-emergence action against KCHSC,KCHSC [13],100%
same,Pre-emergence action against ECHCG,ECHCG [14],100%
same,Post-emergence action against ABUTH,ABUTH [15],90%
same,Post-emergence action against DIGSA,DIGSA [16],100%
same,Post-emergence action against POAAN,POAAN [17],100%
same,Pre-emergence action against LOLRI,LOLRI [18],100%
same,Pre-emergence action against AVEFA in %,AVEFA,80%
same,Pre-emergence action against ABUTH,ABUTH [19],90%
same,Post-emergence action against ALOMY,ALOMY [20],100%
same,Pre-emergence action against VERPE in %,VERPE [21],80%
same,Pre-emergence action at 320 g/ha against ALOMY in %,ALOMY [22],100%
same,Pre-emergence action against LOLRI in %,LOLRI [23],100%
same,Pre-emergence action against DIGSA in %,DIGSA [24],100%
same,Post-emergence action against ECHCG,ECHCG [25],100%
same,Pre-emergence action against PHBPU in %,PHBPU,90%
same,Pre-emergence action against AMARE in %,AMARE [26],100%
same,Post-emergence action against AMARE,AMARE [27],90%
same,Post-emergence action against KCHSC,KCHSC [28],90%
same,Pre-emergence action against SETVI in %,SETVI [29],100%
same,Post-emergence action against VERPE,VERPE [30],100%
same,Pre-emergence action against VERPE,VERPE [31],100%
